Data reported in patent publication US5885824A, “Recombinant genomic clone encoding the histamine H2 receptor, methods for production thereof, and protein produced therefrom” (The Regents of the University of Michigan, priority 1993, dated 1999).
Entries after “also recorded” stand apart in the source; their conditions may differ.

Legend:
[1] = target: T1, canine histamine H2 receptor (Canis lupus familiaris, UniProt P17124); assay: cyclic AMP content of L-cells transfected with CMVneo vector containing the canine histamine H2 receptor gene insert; assay type: cell-based; conditions: for effect on cAMP content: doses as high as 10^-4 M, transfected L-cells
T1 construct: cloning of the entire gene encoding a histamine H2 receptor using cDNA derived from mRNA isolated from a canine gastric cell source; expressed in transfected cells; host or cells: mouse L-cells, permanently transfected (CMVneo vector, G418 selection)
T1 sequence (P17124 whole entry): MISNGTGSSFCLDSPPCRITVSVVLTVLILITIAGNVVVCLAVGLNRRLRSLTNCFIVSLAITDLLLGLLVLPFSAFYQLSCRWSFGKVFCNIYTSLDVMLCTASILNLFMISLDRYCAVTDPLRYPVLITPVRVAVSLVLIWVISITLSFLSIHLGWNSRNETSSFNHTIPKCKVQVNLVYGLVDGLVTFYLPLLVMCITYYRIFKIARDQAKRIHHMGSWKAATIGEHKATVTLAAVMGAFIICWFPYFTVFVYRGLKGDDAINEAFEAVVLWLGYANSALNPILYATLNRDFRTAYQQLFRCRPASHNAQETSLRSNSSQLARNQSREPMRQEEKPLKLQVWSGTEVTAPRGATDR

[2] = target: T1, canine histamine H2 receptor; assay: inhibition of [methyl-3H]-tiotidine binding to transformed L-cells; conditions: for inhibition of [methyl-3H]-tiotidine binding (in words): percent of maximal specific binding
Method: Transformed L-cells were plated and grown to confluence in 2.4×1.7 cm multi-well plates. The culture media was removed and cells were washed twice with Earle's balanced salt solution containing 0.1% bovine serum albumin. An aliquot (36 nCi) of [methyl-^3 H]-tiotidine (87 Ci/mmol; Dupont, Boston Mass.) was added to the culture in the presence of either cimetidine or diphenhydramine and after one hour of incubation, the medium was removed by aspiration. The cells were washed twice with 0.2M phosphate buffered NaCl pH 7.4, lysed with 1% Triton X-100, and the radioactivity was quantified. Maximum binding was determined by incubation of [methyl-^3H]-tiotidine with transformed L-cells in the absence of antagonists and non-specific binding, which was subtracted from total binding to obtain specific binding, was determined as the amount of label remaining bound in the presence of 10^-4 M histamine. The data, presented as percent of maximal specific binding, are from a single experiment and are virtually identical to data obtained in two other experiments.

Row | Structure (SMILES) | effect on cAMP content [1] | inhibition of [methyl-3H]-tiotidine binding (in words) [2] | also measured
1 | NCCc1c[nH]c2ccc(O)cc12 [Serotonin] | no effect | – | –
2 | CN/C(=N/CCSCc1nc[nH]c1C)NC#N [cimetidine] | – | dose-dependently inhibited label binding | effect on histamine cAMP dose-response curve ([1]; 60 min pre-incubation with cimetidine (10^-4 M)): shifted to the right; IC50 ([2]; one hour of incubation, mean±se n=4, read-out: ED50 for displacement of [methyl-3H]-tiotidine binding): 550 nM
3 | CN(C)CCOC(c1ccccc1)c1ccccc1 [diphenhydramine] | – | inhibited binding only at the very highest dose; also recorded: no ability to inhibit [methyl-^3 H]-tiotidine except with the highest dose | –
4 | NCCc1ccc(O)c(O)c1 [dopamine] | no effect | – | –
5 | CNC[C@H](O)c1ccc(O)c(O)c1 [epinephrine] | no effect | – | –
6 | NCCc1c[nH]cn1 [histamine] | – | – | activation at 10 µM ([1]; 1 h, read-out: maximum increase in cellular cyclic AMP content): 217 ± 10%
